Columns and labels:
[1] = Thawing and baking trials with yeast-raised wheat frozen doughs in a microwave oven; conditions: yeast-raised wheat frozen dough; for ΔT (temperature difference between crust temperature and crumb temperature): 2 parts by weight additive, 600 watts, 120 seconds; for Microwave activity: assessment scale from ΔT
Procedure: Dough Composition (Basic Recipe):
In addition 2 parts by weight of microwave absorber were added to the basic recipe.
• Mixing and kneading time: 3+2 minutes (the latter in a Stephan mixer) • Dough standing time: 20 minutes • Dough piece weight: 200 g • Cooking time of the dough pieces: 20 minutes • Freezing time: about 4 hours • Deep freeze storage time: about 2 days Thawing and Baking Trials:
The deep-frozen dough pieces were exposed to microwave radiation in a microwave oven from Panasonic (model: NN-GD560M—inverter microwave) for a predetermined period of 120 seconds and with a predetermined microwave power of 600 watts (according to the device indication). After 2 minutes of standing time the temperature of the crust and the crumb was measured by means of an infrared temperature sensor at various measurement points on the dough piece.
Measurement value 1 (M1)=average crust temperature outside
Measurement value 2 (M2)=average crumb temperature in the interior of the dough piece.

[2] = Solubility of the additive in water at 20° C.; assay type: physicochemical
[3] = Pore volume by nitrogen gas adsorption (BJH method, BELSORP-mini II); assay type: physicochemical; conditions: total pore volume Vp, nitrogen adsorption at 77.3 K
Excerpt: Determining the Pore Volume
The pore volume in accordance with the present invention is characterised by means of gas adsorption. The recording of physisorption isotherms (adsorption and desorption isotherms) of inert gas molecules at low temperatures is routinely used for determining solids parameters.
The BJH method provides an algorithm for the calculation of pore width distribution from nitrogen adsorption data on the assumption of a cylindrical pore geometry. In that respect consideration is given to the change in the adsorbed volume in the pores in dependence on the pore radius, wherein the pore radius distribution function is related as a relative value to the total pore volume. […] It is assumed that the entire pore system is filled with a capillary condensate.

Molecule	ΔT (temperature difference between crust temperature and crumb temperature) [1] [°C]	Microwave activity [1]	Solubility [2] [mg/mL]	Pore Volume [3]
Magnesium metaphosphate [MMP]	38.4	2 (ΔT=25 to 40° C.=good)	<0.1	5.1 10^−3 cm^3/g
O=P([O-])([O-])OP(=O)([O-])OP(=O)([O-])[O-].[K+].[K+].[K+].[K+].[K+] [KTPP(V), Potassium tripolyphosphate, reference compound]	12.3	3 (ΔT=<25° C.=no additional activity)	>200	1.1 10^−3 cm^3/g
Sodium aluminium phosphate 1:3:8 NaH14Al3(PO4)8 [SALP 1]	29.6	2 (ΔT=25 to 40° C.=good)	15	13 10^−3 cm^3/g

From patent publication US10231463B2, “Food mass suitable for microwaving” (Chemische Fabrik Budenheim KG, priority 2013, dated 2019)
